Here are results for 16 compounds from patent EP1674096A2, “Hypoglycemics comprising organic zinc (II) complexes” (Japan Science and Technology Agency, priority 1999, dated 2001).

For one series, the system named is rat adipocyte. Put plainly: Inhibition of free fatty acid (FFA) release from epinephrine-stimulated rat adipocytes. It counts as cell-based. The following applies: concentration inhibiting release of the fatty acid by 50 %, relative values with IC50 of VOSO4 regarded as 1.00 mM, 10^-5 M epinephrine, 3 hours at 37°C, glycine complex in aqueous solution, others in physiological saline. The procedure: A pharmacological test was conducted as described below in accordance with the method reported in Biol.Pharm.Bull., 18, 719-725 (1995).
A male Wistar rat weighing 200 g was exsanguinated under an anesthesia with ether, and a fat cell mass was isolated from a fat tissue around an epididymis according to the method of Road Bell (J. Biol. Chem. , 239, 375(1964)). The fat cell mass was cut into pieces using scissors, and digested for 1 hour at 37°C in a KRB buffer solution (5 mM Glucose, 120 mM NaCl, 1.27 mM CaCl2, 1.2 mM MgSO4, 4.75 mM KCl, 1.2 mM KH2PO4 and 24 […]; pH=7.4) supplemented with 20 mg of bovine serum albumin (BSA) and 2 mg of collagenase per ml. The fat cells were sieved through a nylon mesh (250 µm) whereby being made free from any undigested tissue, washed three times with the buffer similar to that described above except for containing no collagenase, and adjusted at 2.5 x 10^6 cells/ml.
Then the reaction mixture was combined with 10^-5 M epinephrine and the resultant solution was incubated for 3 hours at 37°C. The reaction was quenched by cooling with ice, and the mixture was centrifuged for 10 minutes at 3000 rpm. The extracellular solution was examined for its free fatty acid (FFA) level using an NEFA kit whereby calculating an IC50 value.

Series [1] concerns KK-A^y mice. Put plainly: Body weight change in KK-A^y mice under daily intraperitoneal treatment (index of side effects). The series is classed as in vivo. To be noted: intraperitoneally once a day, 4.5 or 2.5 mg Zn/kg depending on blood glucose, 13 to 15 days (Figures 9 to 11). The procedure: (§1) In the control group, 0.5 ml of the acacia solution was given.
The test system of series [2] is KK-A^y mice. Briefly: Glucose tolerance test in KK-A^y mice after 3 days of treatment. It counts as in vivo. To be noted: 4 mg/kg once a day for 3 days, then fasted for 14 hours, compared with mice not receiving the complex (Figure 3). The procedure:
Subsequently, KK-A^y mice as type II diabetes model animals and humans were subjected to the glucose tolerance tests to obtain blood glucose curves, which are shown in Figure 3 and Figure 4.
In Figure 3, (a) denotes a blood glucose curve obtained in a glucose tolerance test in mice each of which received 4 mg/kg of Zn(PA)2(H2O)2 as an inventive zinc (II) complex once a day for 3 days and then fasted for 14 hours, and (b) denotes one in a control group in which the mice were not treated with the complex. In Figure 4, (a) denotes a blood glucose curve obtained in a glucose tolerance test in diabetes patients, while (b) denotes one in normal healthy volunteers.

For series [3], the system named is KK-A^y mice. Briefly: Glucose tolerance test in KK-A^y mice after 15 days of treatment. It counts as in vivo. The following applies: KK-A^y mice fasted for 13 hours, glucose orally at 1 g/kg; compared with control mice (Figure 12). As for the experimental part:
8-Week old KK-A^y mice were treated intraperitoneally once a day with a 5 % acacia solution in a control group (n=6) or with Zn(PA)2 (n=6), Zn(maltol)2 (n=7) or Zn(Cys-OMe)2 (n=6) dissolved in a 5 % acacia solution in the complex treatment groups.
as §1
(glucose tolerance test: A mouse was fasted for 13 hours and then administered orally with glucose at 1 g/kg, and then the blood glucose levels were determined at certain time intervals.)

The mark [4] stands for this setting: Glucose +, 6-methyl-picolinic acid and pyridine-2-acetic acid complexes in DMSO.

With `O=S(=O)([O-])[O-].[O]=[V+2]` [VOSO4/5.4 or 2.3H2O, Oxovanadium sulfate, reference compound], the IC50 in the series on rat adipocyte (setting [4]) and in the series on rat adipocyte (Glucose -) was 1 mM each time.

As to `Cc1cccnc1C(=O)O` [Zn(3MPA)2], the IC50 – broadly, the concentration that inhibits the measured activity by half – in the series with rat adipocyte (Glucose -) was 0.42 mM.

`O=C(O)c1cccc(Br)n1` [Zn(6BPA)2] had a half-maximal inhibitory concentration (IC50) with rat adipocyte (Glucose -) of 0.45 mM.

Take `Cc1cccc(C(=O)[O][Zn][O]C(=O)c2cccc(C)n2)n1` [Zn(6MPA)2(H2O), bis(6-methyl-picolinate)zinc(II)complex]: the IC50 with rat adipocyte (setting [4]) is 0.39 mM.

With `COC(=O)C(N)C[S-].COC(=O)C(N)C[S-].[Zn+2]` [Zn(Cys-OMe)2, bis(L-cysteine methyl ester) zinc (II) complex], in the series with KK-A^y mice [1], the “body weight change (weight loss as an index of side effects)” value is given as “no increase or decrease in the body weight was observed”.

In turn, `O=C(O)C1CSCN1` [Zn(D-4Tia)2] yielded an IC50 in the series with rat adipocyte (Glucose -) of 1.28 mM.

For the compound `NC(=O)CC[C@H](N)C(=O)O` [Zn(Gln)2], the IC50 in the series on rat adipocyte (setting [4]) was 0.84 mM.

In the series with rat adipocyte (Glucose -), `O=c1cc(CO)occ1O` [Zn(Koj)2] came in with an IC50 of 0.91 mM.

Take `O=C(O)C1CSCN1` [Zn(L-4Tia)2]: it took 1.2 mM to reach half-maximal inhibition with rat adipocyte (Glucose -) (IC50).

For `O=C([O-])c1cccnc1.O=C([O-])c1cccnc1.[Zn+2]` [Zn(Nic)2/4H2O], in the series with rat adipocyte (setting [4]), the IC50 amounted to 0.82 mM.

Take `O.O.O=C([O-])c1ccccn1.O=C([O-])c1ccccn1.[Zn+2]` [trans-[Zn(PA)2H2O)2], trans-bis(picolinate) zinc (II) complex]: the “blood glucose curve in glucose tolerance test” value in the series on KK-A^y mice [2] was “a reduced peak level of the blood glucose followed by a rapid decrease, as compared with the mice not receiving the complex and then recovered its almost normal blood glucose level after 180 minutes”. In addition, the “body weight change (weight loss as an index of side effects)” value in the series on KK-A^y mice [1] is listed as “not observed in most of the animals”. Besides, the “glucose tolerance test after the administration of each complex for 15 days” value in the series on KK-A^y mice [3] is recorded as “an amelioration of the diabetes conditions when compared with the diabetes mice (control mice)”.

Turning to “bis(2-mercaptopyridine-N-oxide) zinc (II) complex [Zn(MPNO)2/0.3H2O]”, the figures for the IC50 in the series on rat adipocyte (setting [4]) and in the series on rat adipocyte (Glucose -) were 0.011 mM and 0.013 mM, respectively.

As for “bis(3-hydroxy-2-methyl-4-pyronate) zinc (II) complex [Zn(maltol)2/2.6H2O]”, in the series on rat adipocyte (setting [4]), the IC50 was determined as 0.57 mM. The “body weight change (weight loss as an index of side effects)” value in the series on KK-A^y mice [1] was “immediately after the treatment with the complex, the body weight was recovered in response to the reduction in the blood glucose and the reduction in the dose”. Also, in the series on KK-A^y mice [3], the “glucose tolerance test after the administration of each complex for 15 days” value is recorded as “an amelioration of the diabetes conditions when compared with the diabetes mice (control mice)”.

In the series with rat adipocyte (Glucose -), “bis(pyrrolidine-N-dithiocarbamate) zinc (II) complex [Zn(PCD)2]” registered an IC50 of 0.049 mM.

The compound “cis-bis(threonine) zinc (II) complex [cis-[Zn(Thr)2(H2O)2]]” returned an IC50 in the series with rat adipocyte (Glucose -) of 1.3 mM.

For “trans-bis(glycine) zinc (II) complex [Zn(Gly)2/1.0H2O]”, the IC50 in the series on rat adipocyte (setting [4]) came to 0.63 mM; in the series with rat adipocyte (Glucose -) it was 0.84 mM.
